Test results: patent US20240336574A1 (LATIGO BIOTHERAPEUTICS, INC., priority 2021, published 2024)

Columns and labels:
[1] = target: T1, recombinant human NaV1.8 stably transfected HEK cells (Homo sapiens, UniProt Q9Y5Y9); experiment: Compound profiling on NaV1.8, human NaV1.8 cell line, SyncroPatch384PE automated patch clamp assay (Example 115, third set of compounds, Table 27); type: cell-based; conditions: human NaV1.8 HEK cells, Table 27 (third set of compounds)
T1 construct: expressed in transfected cells; host or cells: HEK cells, stably transfected
Method: Compound Profiling on NaV1.8 Human NaV1.8 Cell Line SyncroPatch384PE Assay
Compounds were tested on recombinant human NaV1.8 stably transfected HEK cells using the SyncroPatch384PE system, an automated patch clamp device. Cells were cultured at 37° C./5% CO2 in DMEM medium supplemented with GlutaMAX I, NEAA 1%, FBS 10% and seeded in T175 flasks. Cells were cultured at 30° C. one day prior to recording sodium currents. On the day of the recordings, cells were detached with 0.05% Trypsin-EDTA, resuspended in serum free DMEM medium and placed into the SyncroPatch384PE 6° C. pre-cooled cell hotel and shaken at 200 rpm. Intracellular solution (IC) contained, in mM: 10, CsCl; 110, CsF; 20, EGTA; 10, HEPES. Extracellular solution (EC) contained, in mM: 140, NaCl; 4, KCl; 5, Glucose; 10, HEPES; 2, CaCl2; 1, MgCl2. Washing solution contained, in mM: 40, NMDG; 100, NaCl; 4, KCl; 10, Glucose; 10, HEPES; 5, CaCl2; 1, MgCl2.
Compounds were tested in quadruplicates in 0.1% DMSO and 0.030% Pluronic Acid. Compounds were diluted 1:3.33 in EC solution to create a 10-point concentration response curve, spanning a final concentration range from 10-0.0002 μM in the assay plate. Compounds with low nM potency were retested using a lower concentration range (1-0.00002 μM). Each plate contained tetracaine and another tool compound as positive controls. Up to 7 compounds were tested on one plate. 150 μM tetracaine and 0.1% DMSO were used as high and low controls, respectively.
Whole cell patch clamp recordings were conducted according to Nanion's standard procedure for SyncroPatch384PE®. Cells were held at a holding potential of −120 mV. A depolarization step to 10 mV for 30 ms was applied (P1 measurement), followed by a hyperpolarization step to −100 mV for 100 ms. An inactivation step at −40 mV for 10 sec was applied before stepping to −100 mV for 20 ms, followed by a step to 10 mV for 30 ms (P2 measurement) and then back to −100 mV for 30 ms. Sweep interval was 15 sec with a sampling rate of 10 kHz. Following establishment of the whole-cell configuration in EC, two washing steps with reference buffer were performed to stabilize the baseline. Compounds were then applied by the SynchroPatch into each well and the current was recorded for five minutes in EC, followed by application of tetracaine to achieve full block at the end of the experiment. The potency of the compounds was assessed on two read-outs, resting state block (P1 measurement) or inactivated state block (P2 measurement) to obtain IC50 values. Values were normalized to high (tetracaine) and low (DMSO) controls.

[2] = target: T1, recombinant human NaV1.8 stably transfected HEK cells; experiment: Compound profiling on NaV1.8, human NaV1.8 cell line, SyncroPatch384PE automated patch clamp assay (Example 102, first set of compounds, Table 16); type: cell-based; conditions: human NaV1.8 HEK cells, Table 16 (first set of compounds)
Method in brief: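 Automated whole-cell patch clamp on HEK cells precultured at 30 °C one day before recording; CsF-based internal, 140 mM NaCl external. 10-point curve, 20–0.001 μM final, 0.1% DMSO, 5 min exposure. IC50 for resting (P1, −120 mV hold) and inactivated (P2, after 10 s at −40 mV) block, normalized to 250 μM tetracaine and DMSO.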

[3] = inactivated state block (P2 measurement), read-out: P2 IC50
[4] = resting state block (P1 measurement), read-out: P1 IC50
[5] = inactivated state block (P2 measurement), read-out: P2IC50
[6] = resting state block (P1 measurement), read-out: P1IC50

T1 sequence (Q9Y5Y9 whole entry): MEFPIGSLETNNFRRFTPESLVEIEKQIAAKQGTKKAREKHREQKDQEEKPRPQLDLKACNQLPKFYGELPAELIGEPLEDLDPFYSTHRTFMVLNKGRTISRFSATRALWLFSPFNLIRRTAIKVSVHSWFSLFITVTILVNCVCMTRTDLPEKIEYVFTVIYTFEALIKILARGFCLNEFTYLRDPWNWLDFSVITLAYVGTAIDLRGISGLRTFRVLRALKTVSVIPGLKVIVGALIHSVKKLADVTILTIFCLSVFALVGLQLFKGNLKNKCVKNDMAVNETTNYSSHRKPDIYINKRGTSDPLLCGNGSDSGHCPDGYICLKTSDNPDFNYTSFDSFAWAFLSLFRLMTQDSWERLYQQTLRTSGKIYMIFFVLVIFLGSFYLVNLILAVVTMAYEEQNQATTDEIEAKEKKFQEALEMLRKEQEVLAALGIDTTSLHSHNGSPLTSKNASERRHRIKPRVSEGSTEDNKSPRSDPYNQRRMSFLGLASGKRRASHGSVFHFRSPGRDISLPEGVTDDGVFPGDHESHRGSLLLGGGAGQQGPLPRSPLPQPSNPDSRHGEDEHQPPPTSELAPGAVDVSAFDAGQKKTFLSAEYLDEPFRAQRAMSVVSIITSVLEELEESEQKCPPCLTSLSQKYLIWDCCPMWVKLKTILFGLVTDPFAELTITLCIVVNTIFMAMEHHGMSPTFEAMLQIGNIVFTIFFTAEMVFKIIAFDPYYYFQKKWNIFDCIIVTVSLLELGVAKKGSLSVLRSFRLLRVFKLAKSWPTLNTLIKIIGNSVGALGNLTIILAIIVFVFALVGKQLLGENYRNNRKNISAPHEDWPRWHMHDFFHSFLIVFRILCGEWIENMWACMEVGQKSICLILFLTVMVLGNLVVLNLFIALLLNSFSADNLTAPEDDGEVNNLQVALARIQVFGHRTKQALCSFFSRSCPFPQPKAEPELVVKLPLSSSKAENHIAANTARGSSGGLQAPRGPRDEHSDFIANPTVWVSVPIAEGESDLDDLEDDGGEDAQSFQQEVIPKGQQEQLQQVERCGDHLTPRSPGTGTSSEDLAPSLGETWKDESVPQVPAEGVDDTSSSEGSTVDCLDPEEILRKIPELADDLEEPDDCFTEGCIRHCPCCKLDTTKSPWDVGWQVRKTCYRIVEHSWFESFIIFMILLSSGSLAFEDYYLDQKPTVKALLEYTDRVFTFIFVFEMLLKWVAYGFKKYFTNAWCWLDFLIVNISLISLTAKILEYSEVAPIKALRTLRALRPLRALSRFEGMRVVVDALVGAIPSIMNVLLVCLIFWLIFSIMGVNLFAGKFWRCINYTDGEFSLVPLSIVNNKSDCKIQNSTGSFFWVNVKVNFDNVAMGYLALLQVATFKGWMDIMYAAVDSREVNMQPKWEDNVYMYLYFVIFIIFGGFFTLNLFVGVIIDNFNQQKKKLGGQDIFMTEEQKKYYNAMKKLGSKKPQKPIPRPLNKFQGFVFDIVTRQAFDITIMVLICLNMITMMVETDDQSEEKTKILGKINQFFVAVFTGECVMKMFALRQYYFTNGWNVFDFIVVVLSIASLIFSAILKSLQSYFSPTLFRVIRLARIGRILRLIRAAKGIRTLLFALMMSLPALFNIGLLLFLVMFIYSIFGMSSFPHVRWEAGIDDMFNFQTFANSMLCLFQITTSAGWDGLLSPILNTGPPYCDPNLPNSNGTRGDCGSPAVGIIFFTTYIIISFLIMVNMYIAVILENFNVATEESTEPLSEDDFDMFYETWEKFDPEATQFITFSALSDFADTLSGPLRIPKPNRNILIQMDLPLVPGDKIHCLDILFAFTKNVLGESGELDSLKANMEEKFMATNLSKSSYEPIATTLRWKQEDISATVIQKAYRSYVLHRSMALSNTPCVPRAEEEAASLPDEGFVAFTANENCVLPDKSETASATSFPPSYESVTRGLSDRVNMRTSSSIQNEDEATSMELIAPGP

| SMILES | IC50 [1, 3] | IC50 [1, 4] | IC50 [2, 5] | IC50 [2, 6] |
| --- | --- | --- | --- | --- |
| Cc1cc(Br)ccc1Oc1nnc(C(F)(F)F)cc1C(=O)Nc1cccc(S(C)(=N)=O)c1 (centres unmarked) [Compound 117, 3-(4-Bromo-2-methylphenoxy)-N-(3-(S-methylsulfonimidoyl)phenyl)-6-(trifluoromethyl)pyridazine-4-carboxamide] | ≤ 200 nM | ≤ 200 nM | – | – |
| Cc1cc(F)ccc1Oc1nnc(C(F)(F)F)cc1C(=O)Nc1ccc(=O)[nH]c1 [Compound 41] | > 5000 nM | 1000 to 5000 nM | – | – |
| COc1cc(F)ccc1Oc1nnc(C(F)(F)F)cc1C(=O)Nc1cccc(-n2cnnc2)c1 [Compound 22] | 1000 to 5000 nM | 1000 to 5000 nM | – | – |
| Cc1cc(-c2cn[nH]c2)ccc1Oc1nnc(C(F)(F)F)cc1C(=O)Nc1cccc(S(C)(=O)=O)c1 [Compound 133, 3-[2-Methyl-4-(1H-pyrazol-4-yl)phenoxy]-N-(3-methylsulfonylphenyl)-6-(trifluoromethyl)pyridazine-4-carboxamide] | > 5000 nM | > 5000 nM | – | – |
| COc1cc(F)ccc1Oc1nnc(C)cc1C(=O)Nc1cccc(S(C)(=N)=O)c1 (centres unmarked) [Compound 94, 3-(4-Fluoro-2-methoxyphenoxy)-6-methyl-N-(3-(S-methylsulfonimidoyl)phenyl)pyridazine-4-carboxamide] | > 5000 nM | 1000 to 5000 nM | – | – |
| Cc1cc(Br)ccc1Oc1nnc(C(F)(F)F)cc1C(=O)Nc1ccc(C(N)=O)cc1 [Compound 83] | ≤ 200 nM | ≤ 200 nM | – | – |
| COc1cc(F)ccc1Oc1nnc(C(F)(F)F)cc1C(=O)Nc1ccnc(C(N)=O)c1 [Compound 126, N-(2-Carbamoylpyridin-4-yl)-3-(4-fluoro-2-methoxyphenoxy)-6-(trifluoromethyl)pyridazine-4-carboxamide] | ≤ 200 nM | ≤ 200 nM | – | – |
| Cc1cc(F)ccc1Oc1nnc(C(F)(F)F)cc1C(=O)Nc1ccc[n+]([O-])c1 [Compound 61] | > 5000 nM | > 5000 nM | – | – |
| Cc1cc(F)ccc1Oc1nnc(C(F)(F)F)cc1C(=O)Nc1cccc([S@](C)(=N)=O)c1 [Compound 102, (R)-3-(4-fluoro-2-methylphenoxy)-N-(3-(S-methylsulfonimidoyl)phenyl)-6-(trifluoromethyl)pyridazine-4-carboxamide] | 201 to 500 nM | 501 to 1000 nM | – | – |
| CSc1ccc(NC(=O)c2cc(C(F)(F)F)nnc2Oc2ccc(F)cc2C)cc1 [Compound 32] | > 5000 nM | > 5000 nM | – | – |
| COc1cc(F)ccc1Oc1nnc(C(F)(F)F)cc1C(=O)Nc1cccc(S(N)(=O)=O)c1 [Compound 39] | ≤ 200 nM | ≤ 200 nM | – | – |
| Cc1cc(C(F)(F)F)ccc1Oc1nnc(C(F)(F)F)cc1C(=O)Nc1cccc(S(C)(=O)=O)c1 [Compound 42] | ≤ 200 nM | ≤ 200 nM | – | – |
| Cc1cc(F)ccc1Oc1nnc(C(F)(F)F)cc1C(=O)Nc1cc[nH]c(=O)c1C [Compound 91, 3-(4-Fluoro-2-methylphenoxy)-N-(3-methyl-2-oxo-1,2-dihydropyridin-4-yl)-6-(trifluoromethyl)pyridazine-4-carboxamide] | > 5000 nM | > 5000 nM | – | – |
| Cc1cc(OC(F)(F)F)ccc1Oc1nnc(C(F)(F)F)cc1C(=O)Nc1ccc(C(N)=O)cc1 [Compound 37] | ≤ 200 nM | ≤ 200 nM | – | – |
| COc1cc(C#N)ccc1Oc1nnc(C(F)(F)F)cc1C(=O)Nc1cccc(C(N)=O)c1 [Compound 76] | ≤ 200 nM | ≤ 200 nM | – | – |
| CS(=O)(=O)c1cccc(NC(=O)c2cc(C(F)(F)F)nnc2Oc2ccc(F)cc2Cl)n1 [Compound 68] | > 5000 nM | > 5000 nM | – | – |
| Cc1cc(F)ccc1Oc1nnc(C(F)(F)F)cc1C(=O)Nc1ccn2cnnc2c1 [Compound 11] | 1000 to 5000 nM | 1000 to 5000 nM | – | – |
| CS(=N)(=O)c1cccc(NC(=O)c2cc(C(F)(F)F)cnc2OC2CC(C(F)(F)F)C2)c1 (mixture of isomers) [Compound 1666] | – | – | 40 to 200 nM | 40 to 200 nM |
| N#Cc1cc(F)ccc1Oc1ncc(C(F)(F)F)cc1C(=O)Nc1cccc(C(N)=O)c1 [Compound 1692] | – | – | 40 to 200 nM | 40 to 200 nM |
